The record followed here is patent publication US10993916B2, “Crystalline microparticles of a beta-agonist coated with a fatty acid” (Chiesi Farmaceutici S.p.A., priority 2011, dated 2021).

Format in all cases: physicochemical
Series [1] is described as follows: Aerosol performances of the pMDI formulations of formoterol fumarate microparticles (Next Generation Impactor). Particulars: pMDI suspension in HFA134a, nominal dose 12 μg, mean±S.D. On the procedure: To prepare pMDI aerosol suspension formulations with a nominal dose of the active ingredient of 12 μg, the aluminum canisters were filled in a controlled atmosphere room, by successively introducing 2.4 mg the microparticles of Example 1 and then 10 ml pressurized HFA134a gas. The devices were fitted with a 50 μl APTAR valve and a Bespak actuator of 0.3 mm. For comparative purposes, a pMDI aerosol suspension formulations comprising micronized formoterol fumarate dihydrate was also prepared. The sedimentation rate was determined using a Turbiscan apparatus (Formulaction SA, France).
(§1) The pMDI formulations were also characterized in terms of aerosol performances. They were assessed using a Next Generation Impactor to according to the procedure described in the European Pharmacopoeia 7th edition, 2011, part 2.9.18.
(§2) Quantification of formoterol fumarate dihydrate (FF) was performed using a HPLC method. The following parameters were determined: • i) delivered dose (DD) is calculated from the cumulative deposition in the […], divided by the number of actuations per experiment; • ii) fine particle mass (FPM) is obtained by interpolation of the cumulative percentage undersize of drug mass deposition versus cut off diameter. The FPM corresponds to particles of diameter ≤5.0 microns, divided by the number of actuations per experiment. • iii) respirable fraction (fine particle fraction=FPF) which is the percent ratio between the fine particle mass and the delivered dose. • iv) mass median aerodynamic diameter (MMAD) which is the diameter around which the mass aerodynamic diameters of the emitted particles are distributed equally;

Series [2] is described as follows: Aerosol performances of the powder formulations (Next Generation Impactor, RS01/7 inhaler). Conditions: dry powder with alpha-lactose monohydrate carrier, 6 μg drug to 10 mg carrier, mean±S.D. On the procedure:
To prepare powder formulations, the microparticles of Example 1 FF-myr 0.5 and Ff-myr 2.0 were mixed in a Turbula mixer with alpha-lactose monohydrate having a mass diameter comprised between 90 and 150 μm as a carrier, to obtain a ratio of 6 μg of drug to 10 mg of carrier. […] Each powder was filled in hard HMPC gelatine capsules, in turn loaded in a RS01/7 unit dose inhaler (Plastiape, Italy).
The aerosol performances were evaluated using a Next Generation Impactor (NGI) according to the procedure described in European Pharmacopoeia 7th edition, 2011, part 2.9.18, pages 281-285. The results (mean±S.D.) in terms of delivered dose (DD), fine particle mass (FPM), fine particle fraction (FPF) and mass median aerodynamic diameter (MMAD), are reported in Table 3.

Series [3] can be described thus: Aerosol performances of the pMDI formulations of salmeterol xinafoate microparticles (Next Generation Impactor). Particulars: pMDI suspension in HFA134a, FEP-coated canisters, nominal dose 25 μg, mean±S.D. How it is done: as §1, §2
To prepare pMDI aerosol suspension formulations with a nominal dose of the active ingredient of 25 μg, canisters coated with FEP were filled in a controlled atmosphere room, by successively introducing 3.0 mg the microparticles of Example 5 and then 6 ml pressurized HFA134a gas. The devices were fitted with a 50 μl APTAR valve and a Bespak actuator of 0.3 mm. For comparative purposes, a pMDI aerosol suspension formulations comprising micronized salmeterol xinafoate was also prepared. The pMDI formulations were characterized in terms of aerosol performances. They were assessed as described in Example 3.

For `COc1ccc(CC(C)NCC(O)c2ccc(O)c(NC=O)c2)cc1.COc1ccc(CC(C)NCC(O)c2ccc(O)c(NC=O)c2)cc1.O.O.O=C(O)/C=C/C(=O)O` (stereo not drawn) [FF raw material, formoterol fumarate dihydrate], in series [1], the “DD (delivered dose)” value amounted to 8.34 ± 0.32 µg; the “FPF (fine particle fraction, respirable fraction)” value amounted to 81.9 ± 2.9%; the “FPM (fine particle mass, ≤5.0 microns)” value came out at 6.84 ± 0.51 µg; the “MMAD (mass median aerodynamic diameter)” value was 1.92 ± 0.00 μm. Moreover, in series [2], the “DD (delivered dose)” value was 73 ± 0.02 µg, the “FPF (fine particle fraction)” value is 14.03 ± 0.82%, the “FPM (fine particle mass)” value amounted to 0.71 ± 0.04 µg and the “MMAD (mass median aerodynamic diameter)” value was found to be 2.36 ± 0.05 μm.

In the case of `OCc1cc(C(O)CNCCCCCCOCCCCc2ccccc2)ccc1O` (stereo not drawn) [SX raw, salmeterol xinafoate], in series [3], the “DD (delivered dose)” value turned out to be 14.28 ± 1.72 µg, the “FPF (fine particle fraction)” value is 29.74 ± 1.75%, the “FPM (fine particle mass)” value turned out to be 4.23 ± 0.25 µg and the “MMAD (mass median aerodynamic diameter)” value stood at 2.79 ± 0.39 μm.
